From the METLIN SMRT retention time set (Domingo-Almenara et al. 2019) come the findings set out here.

The data set is described as follows: gradient 5% acetonitrile 3 min, to 50% in 2 min, to 85% in 15 min, held 3 min, 100 µL/min. Particulars: column: Zorbax Extend-C18 2.1 x 50 mm; eluents: water / acetonitrile, 0.1% formic acid. Put shortly: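 Standards, all pure, were combined into mixtures of ~100 molecules and run at 100 μL/min on a Zorbax Extend-C18 column (2.1 × 50 mm, 1.8 μm) with water and acetonitrile, each containing 0.1% formic acid. A coupled quadrupole time-of-flight mass spectrometer operated in positive and negative ionization mode. Retention time values come from computationally picked adduct peaks, each inspected manually.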
On to `COc1ccc(/C=C/C(=O)c2ccc(OC)cc2OC)cc1`, for which the RP-LC retention time is 1100 s. To `O=C(Cn1cnc2nc3c(cc2c1=O)CCCC3)N1CCN(c2cccc(C(F)(F)F)c2)CC1` belongs 881 s; to `Cc1cc(C)c(CNC(=O)C2CCN(c3cnc(N4CCSCC4)nc3)CC2)c(C)c1`, 959 s. The value for `Cc1oc(C(=O)O)cc1COc1ccc2c(oc(=O)c3ccccc32)c1C` was 927 s; that for `CCC(=O)Nc1ccc2c(c1)nc(CN1CCCC1)n2C(C)C` was 581 s; that for `COc1ccc(-c2noc(NCC3CCCO3)n2)cc1` (stereo not given) was 765 s. To `CCCc1noc(-c2nc(-c3ccccc3F)no2)n1` belongs 1090 s. As to `CCCCN1CN=C(Nc2nc(C)c3ccccc3n2)NC1`, the RP-LC retention time worked out at 680 s. The value for `CCCC(NC(=O)c1ccc(C)cc1C)C(=O)Nc1nc2ccccc2[nH]1` (stereo not given) was 735 s; that for `O=C(COc1ccccc1)Nc1nc(-c2ccc(F)cc2)cs1` was 1050 s; that for `Cc1nn(-c2ccccc2)c(C)c1S(=O)(=O)N1CCC(C(=O)Nc2ccc(F)c(Cl)c2)CC1` was 1050 s.

Take `CCOC(=O)c1c(C)oc2nc(C)nc(NCc3ccccn3)c12`: the RP-LC retention time stood at 683 s. The value for `CC(C)CCCC(C)N` (stereo not given) was 641 s. In turn, `Cc1cc(C)cc(S(=O)(=O)Nc2ccc3nc(N4CCN(C)CC4)cc(C(=O)O)c3c2)c1` showed an RP-LC retention time of 612 s.

Consider `COc1ccc(CNC(=O)c2ccc3c(c2)NC(=O)C2CCCCN32)c(OC)c1` (stereo not given), for which the RP-LC retention time came out at 795 s. To `O=C(Nc1cnn(-c2ncncc2N2CCCCC2)c1)c1ccc2c(c1)OCO2` belongs 702 s; to `CN(C)c1nccnc1OC1CCN(C(=O)c2ccc(Cl)cc2)C1` (stereo not given), 783 s; to `O=C(NC1CCCCCC1)C1CCN(S(=O)(=O)c2ccc(-c3noc(C4CC4)n3)cc2)CC1`, 836 s.

In the case of `Cc1cccc(CN2C(=O)N(c3cccc(F)c3)c3ncccc3S2(=O)=O)c1`, the RP-LC retention time was found to be 1050 s. To `O=C(CN1CCC(c2nc(-c3ccc(F)cc3)no2)CC1)NCc1ccc2c(c1)OCO2` belongs 720 s; to `Cc1cc(C)n(-c2c3c(nc4c(-c5ccccc5)c(C)nn24)CCC3)n1`, 982 s.

The compound `O=C(c1cccnc1)N1CCc2c([nH]c3ccccc23)C1c1ccc(Cl)cc1` (stereo not given) returned an RP-LC retention time of 998 s.

In the case of `O=C(NCCCN1CCCCC1)C1CCCN(c2ncc(-c3ccc(F)cc3)cn2)C1` (stereo not given), the RP-LC retention time was 684 s. The value for `O=C(NCC1CN(c2ccc(F)cc2)C(=O)O1)c1cc(Cl)ccc1Cl` (stereo not given) was 797 s. The value for `CCCC(=O)N1CCc2c([nH]c3ccccc23)C1c1ccc(SC)cc1` (stereo not given) was 1170 s. The value for `COc1ccc(CNC(=O)N2CCC(OC3CCN(S(C)(=O)=O)CC3)CC2)cc1` was 699 s; that for `CN1C(=O)c2cccn2CC1C(=O)Nc1ccc(F)cc1` (stereo not given) was 677 s. `Cc1nn(-c2nc(CC(=O)N3CCCCC3)cs2)c(C)c1Cl` registered an RP-LC retention time of 1050 s. The value for `CCc1noc(NC(C)=O)c1-c1ccc(C)c(S(=O)(=O)Nc2cc(OC)c(OC)c(OC)c2)c1` was 761 s. The value for `Cn1ccc(C(=O)N2CCNC(=O)C2(C)C)n1` was 527 s. The value for `COc1ccc(-c2cn3c(CC(=O)Nc4cccc(C#N)c4)csc3n2)cc1OC` was 704 s. Consider `O=C(c1ccc2c(c1)OCO2)N1CCN(c2nnc3ccccn23)CC1`, for which the RP-LC retention time was determined as 616 s. To `O=C(Cn1c(C(F)(F)F)nc2cc3c(cc21)OCCO3)NCC1CCCO1` (stereo not given) belongs 693 s; to `Cc1c(Cl)cccc1NC(=O)CSc1nnc2c3cc(-c4ccc(F)cc4)nn3ccn12`, 936 s; to `O=C(c1ccc(F)cc1)N1CCCC1c1nc(-c2cccc(C(F)(F)F)c2)no1` (stereo not given), 1090 s. `O=C(CCn1cnc2cc(-c3noc(/C=C/c4cccs4)n3)ccc21)N1CCCC1`: the RP-LC retention time was 774 s.

The compound `Cc1cccc(NC(=O)N2CCN(c3cc(N4CCCCC4)ncn3)CC2)c1C` showed an RP-LC retention time of 596 s.

`CCc1cc(N2CCN(C(=O)c3ccc(F)cc3)CC2)nc2nncn12` displayed an RP-LC retention time of 548 s. The compound `O=C(Nc1ccc(C(F)(F)F)cc1)N1CCCC(Cn2c(C3CC3)nc3cccnc32)C1` (stereo not given) yielded an RP-LC retention time of 798 s. The value for `O=C(NCCn1cnc2cc(C(=O)N3CCCC3)ccc21)Nc1ccc2c(c1)CCC2` was 645 s; that for `CC(C)(C[C@@](O)(Cc1cc2ccncc2[nH]1)C(F)(F)F)c1cc(F)ccc1O` was 790 s; that for `COc1cccc(-c2noc(CN3C(=O)COc4cc(Cl)ccc43)n2)c1OC` was 1020 s. For the compound `O=C(Nc1ccc(-c2nc(-c3ccccc3)no2)cc1)c1ccc(Br)o1`, the RP-LC retention time was determined as 1180 s. The value for `O=C(Cc1cccn1-c1ccc(F)cc1)N1CCOCC1` was 760 s; that for `CCOC(=O)c1cccc(Nc2nc(C(=O)OCC)nc3ccccc23)c1` was 870 s. The value for `Cn1cc(S(=O)(=O)N2CCCC2)cc1C(=O)N1CCC(Cc2ccccc2)CC1` was 960 s. On to `CSc1ccc(-c2nc3ccc(Cl)cn3c2Nc2ccc(Cl)cc2)cc1`, for which the RP-LC retention time came out at 993 s. To `Cn1cnc2c(C(=O)N3CCC(c4ccccc4)C3)nn(-c3ccccc3)c2c1=O` (stereo not given) belongs 851 s. Compound `CC(C)(C)c1csc(-c2csc(S(=O)(=O)N3CCCCCC3)c2)n1` displayed an RP-LC retention time of 1340 s. The value for `Cc1nnc2cc(N3CCN(S(=O)(=O)c4ccc(Br)cc4)CC3)cnn12` was 740 s; that for `Cc1ccc(CSc2nnc3c(S(=O)(=O)N4CCCC4)cccn23)cc1` was 852 s.

`CCn1c(=O)c(N2CCN(C(=O)Nc3cccc(Br)c3)CC2)nc2ccccc21` gave an RP-LC retention time of 1030 s. With `Cc1nc2ccccc2c(=O)n1Cc1noc(-c2cccc(Cl)c2)n1`, the RP-LC retention time was found to be 913 s. To `COc1ccc(CNC(=O)Cn2ccc3ccc(N4CCOCC4)nc32)cc1` belongs 831 s; to `COc1ccc2c(c1)C1(CCN(S(=O)(=O)c3ccc(F)c(C)c3)C1)C(=O)N2` (stereo not given), 874 s. To `Cn1cc(C(=O)N2CC(c3nc(CCOCC4CCOCC4)no3)C2)cn1` belongs 663 s. In turn, `CCCn1c(C)cnc1C1CN(S(=O)(=O)c2cccc3cccnc23)C1` returned an RP-LC retention time of 624 s. The value for `COc1cccc(CNC(=O)Cn2c(=O)cc(-c3nc(C4CC4)no3)c3ccccc32)c1` was 902 s; that for `Cc1ccc(C(=O)NCc2nc(-c3ccc4c(c3)ncn4C)no2)cc1` was 634 s. Compound `CC(C)CC(=O)N1CCc2c(c(C(=O)NCc3ccc4c(c3)OCO4)nn2C)C1` showed an RP-LC retention time of 745 s. To `CSc1cccc(NC(=O)N2CCC(N3CCN(Cc4ccccc4)C(=O)C3=O)CC2)c1` belongs 770 s; to `Cc1ccc(NC(=O)C2CC(=O)N(c3ccc4oc(C)nc4c3)C2)c(C)c1` (stereo not given), 741 s; to `COc1cc2c(cc1OC)C(COc1cccc(C(F)(F)F)c1)NCC2` (stereo not given), 586 s. As for `O=C1Nc2ccccc2OC1C(=O)N1CCC(Cc2ccccc2)CC1` (stereo not given), the RP-LC retention time was determined as 920 s. To `O=C1CCCC(=O)C1C(=O)c1ccc(C(F)(F)F)cc1[N+](=O)[O-]` belongs 1070 s. To `CN1C(=O)C2(c3ccccc31)C(C(=O)Nc1ccc(Br)cc1F)CC1CCCN12` (stereo not given) belongs 674 s; to `O=C(NC1CC1)C1CCc2sc(C(=O)N3CCCCCC3)cc2C1` (stereo not given), 736 s; to `COc1ccc(NC(=O)c2c(C)oc3nc(C)nc(N4CCCC4)c23)cc1`, 704 s. The value for `Cc1ccc2[nH]cc(CCN3CC(C(=O)N4CCc5ccccc5C4)CC3=O)c2c1` (stereo not given) was 698 s; that for `Cc1ccc(C(=O)N2CCC(n3c(-c4ccoc4)nc4cccnc43)C2)cc1C` (stereo not given) was 806 s. As for `CCOc1nc2ccccc2nc1N1CCCC(C(=O)NCc2cccnc2)C1` (stereo not given), the RP-LC retention time came out at 684 s.

For `CCC(C)NC(=O)c1cc(-c2ccc(F)cc2)cn1C` (stereo not given), the RP-LC retention time was 981 s. To `CC(C)(C)n1nnnc1C1CC2(CCOCC2)C(=O)N1CCc1c[nH]c2ccccc12` (stereo not given) belongs 770 s; to `O=C1COc2cc(Cl)ccc2N1Cc1nc(-c2ccc(F)c(Cl)c2)no1`, 1190 s; to `CC(C)NC(=O)c1ccc2c(c1)N(S(C)(=O)=O)CC2`, 691 s. The value for `O=C1[C@H]2CN(Cc3ccc(C(F)(F)F)cc3)C[C@H]2C(=O)N1CCc1ccccc1` was 984 s; that for `CCn1cc(CCNC(=O)NCC(=O)OC)c2cccnc21` was 574 s. To `CCOC(=O)c1c(C)oc2nc(C)nc(NCCN(Cc3ccccc3)C(C)C)c12` belongs 735 s; to `CCCNC(=O)C1CCCN(c2ccc(SCC(=O)Nc3cccc(Cl)c3C)nn2)C1` (stereo not given), 720 s. Compound `O=C(Cc1cccc(F)c1)NC1CCN(c2cc(-c3ccc(F)cc3)[nH]n2)C1` (stereo not given) returned an RP-LC retention time of 716 s.
